{"source": "patent US20200131227A1", "about": "“POLYPEPTIDE WITH TUMOUR BINDING ACTIVITY” (RUPRECHT-KARLS-UNIVERSITÄT HEIDELBERG, priority 2017, published 2020)", "molecules": {"B1": {"name": "^177Lu-DOTA-SFLAP3K (peptide)", "peptide": "{DOTA}-GRCTGRGDLGRLKCYPD", "modifications": "disulfide 3-14; also: DOTA loaded with 177Lu (or peptide 125I-labelled in competition assay)", "notes": "DOTA conjugate of SFLAP3K"}, "B2": {"name": "^177Lu-DOTA-SFLAP3 (peptide)", "peptide": "{DOTA}-GRCTGRGDLGRLCYPD", "modifications": "disulfide 3-13; also: DOTA loaded with 177Lu (or peptide 125I-labelled in competition assay)", "notes": "DOTA conjugate of SFLAP3"}, "B3": {"name": "^177Lu-DOTA-SFLAP3-trimer (Formula (XXVII)) (peptide)", "chain": "{DOTA}-GSGSKGSGSKGSGSK", "peptide": "GRCTGRGDLGRLCYPD", "modifications": "disulfide II:3-II:13; also: 177Lu chelated by DOTA, three SFLAP3 units attached by oxime ligation, aminooxy-modified, sites not given here, only one SFLAP3 unit listed as chain", "notes": "Branched trimer; the exact connectivity stands only in the drawing of formula (XXVII), which is not readable here; also called trimerized peptide"}}, "key": {"[1]": {"test_system": "HNSCC tumor sections (HNO97 xenograft, HNO444, HNO399, HNO210)", "assay": "Histochemical peptide staining of HNSCC tumor cryosections", "design": "species or system human", "conditions": "biotinylated PEG(12)-peptide, 10^-5 M", "experimental": "Staining with the biotinylated PEG(12)-SFITGv6 peptide was performed on acetone-fixed cryosections (5 μm) of tumor tissues after blocking of unspecific binding using the Avidin/Biotin Blocking Kit (SP-2001, Vector Laboratories). A stock solution of the lyophilized peptide was prepared by dilution in 5% aqueous DMSO. Slices were incubated overnight at 4° C. with 10^-5 M peptide concentration in antibody diluent (DAKO). Detection of bound peptide was carried out with the Vectastain Elite ABC Kit (PK-6100, Vector Laboratories) according to manufacturer's protocol. Peptide specificity was ensured by a scrambled (GRD) PEG(12)-SFITGv6 derivate, the somatostatin receptor ligand DOTATOC and negative controls (without peptide or primary antibody) Staining results were assessed by bright field microscopy (BX50) with the SC30 camera and the cell Sense software (all Olympus).\nImmunohistochemical stainings were performed by use of the biotinylated PEG(12)-labled peptides (SFITGv6, SFLAP3) on 5 μm acetone-fixed tumor tissue cryosections. To prevent background staining we initially applied the Avidin/Biotin Blocking Kit (SP-2001, Vector Laboratories). The lyophilized peptides were diluted in 5% aqueous DMSO preparing a 1 mM Stock solution. The HNSCC cryosections were incubated with 10^−5 M peptide concentration in antibody diluent (DAKO) at 4° C. overnight. To detect bound peptide the Vectastain Elite ABC Kit (PK-6100, Vector Laboratories) was applied according to manufacturer's protocol. Peptide binding specificity was ensured by use of a peptide derivate (scrambled control) and negative controls (without peptide). Due to instability of the peptide binding staining results were assessed on the same day by bright field microscopy (BX50) with the SC30 camera and the cell Sense software (all Olympus)."}, "HNO97 cells [2]": {"test_system": "HNO97 cells", "assay": "In vitro binding, kinetics, internalization and efflux on HNO97 cells", "assay_type": "cell-based, human", "conditions": "continuously increasing, within 480 min", "experimental": "(§1) For binding studies, 2.5×10^5 to 4×10^5 cells were seeded in 6-well plates and cultivated for 48 hours. Cells were incubated for 60 min with 1 mL serum-free medium containing the ^125I-labeled peptide (see above). For competition experiments, cells were simultaneously exposed to unlabeled (10^-4 M to 10^-10 M) and ^125I-labeled peptides. After three washing steps with PBS (pH 7.4) the cells were lysed with 0.5 mL of 0.3 M NaOH. Experiments concerning the internalization, kinetics and efflux were additionally performed with ^177Lu-DOTA-SFITGv6. To evaluate kinetics and efflux HNO97 cells were incubated for different time intervals (10 min to 480 min) and 60 min, respectively, with ^177Lu-DOTA-SFITGv6 and lysed as described. To continue with the efflux experiment radioactive medium was replaced by non-radioactive medium and cells were incubated again for 60 to 240 min before measuring radioactivity of the cell lysates and the medium. For internalization experiments the cells were exposed to ^177Lu-DOTA-SFITGv6 for different time intervals (10 to 240 min) at 37° C. and 4° C. After three washing steps with PBS the cells were incubated with 1 mL of glycine-HCl 50 mmol/L in PBS (pH 2.8) for 10 min at RT to remove the surface bound activity. Then, cells were washed with 3 mL of ice-cold PBS and lysed as described. Radioactivity was determined in a gamma counter and calculated as percentage of the applied dose per 1×10^6 cells. Experiments were performed three times, and three repetitions per independent experiment were acquired.\n(§2) For the assessment of the peptide binding capacity in vitro, 2.5-4×10^5 cells were seeded into 6-well plates and cultivated for 48 h. ^125I-labeled peptide resuspended in 1 mL serum-free medium was added and incubated for either 10 min or 60 min with or without different concentrations of unlabeled peptide (10^−4-10^−11 M). Afterwards, cell monolayers were washed three times with 1 mL phosphate-buffered saline (pH 7.4) to remove unbound peptide and the cells were harvested with 1.4 mL lysis buffer (0.3 M NaOH). To evaluate kinetic properties the cells were exposed to ^177Lu-DOTA-labeled peptides for 10, 30, 60, 120, and 240 min, respectively, and lysed as described. For the efflux experiments the cells were incubated with ^177Lu-DOTA-labeled peptides for 60 min. Thereafter, radioactive medium was replaced by non-radioactive medium and cell monolayers were incubated for additional 60, 120, and 240 min and afterwards lysed as described earlier. The internalization was assessed after exposure of the cells to ^177Lu-DOTA-labeled peptides for 10, 30, 60, 120, and 240 min at 37° C. Unspecifically bound peptide was removed from the surface by incubation with 1 M glycine-HCl solution (pH 2.2) for 10 min. The monolayer cell was rinsed with PBS and cells were lysed as described before. Radioactivity was determined in a y-counter and calculated as percentage of the applied dose per 1×10^6 cells. Experiments were performed three times, and three repetitions per independent experiment were acquired."}, "Capan-2 cells": {"test_system": "Capan-2 cells", "assay": "In vitro binding, internalization and efflux on Capan-2 cells", "assay_type": "cell-based, human", "experimental": "For in vitro binding Studies, 4*10^5-6*10^5 cells were seeded in 6 well plates and cultivated for 24 to 48 hours. At the start of the experiment the medium was replaced with 1 ml serum free medium with a definite amount of radioactive labeled peptide per well. For normal binding assays the cells were incubated for 60 min at 37° C. and afterwards washed 3 times with PBS (pH 7.4). Cells were lysed with 2 times 0.5 ml of a 0.3 M NaOH +0.2% SDS lysis-buffer. Competition assays were performed with ^125I-labeled and unlabelled (10^−6 to 10^−11M) peptide and incubated at the same time for 60 min.\nCells were incubated for 10 to 240 min with ^177Lu-labelled peptide in internalization assays. After the washing steps, the cells were incubated with 1 ml glycine-HCl (1 M, pH 2.2) buffer for 10 min to remove surface bound peptide. Prior to the lyses the cells were washed again. Values are given as percentage of applied dose per 10^6 cells.\nThe efflux was tested with ^177Lu-labeled peptides. After 60 min incubation the radioactive medium was removed and 1 ml fresh serum-free medium was added. After additional incubation of 60, 120 or 240 min, cell bound activity was measured."}, "HNO97 cells [3]": {"test_system": "HNO97 cells", "assay_type": "binding, human", "conditions": "48 h", "experimental": "as §1"}, "carcinoma cell lines": {"test_system": "carcinoma cell lines", "assay": "In vitro binding of radiolabeled peptides to several carcinoma cell lines", "assay_type": "cell-based, human", "conditions": "HNO97, HNO399, HNO223, HNO210, HNO199; 60 min", "experimental": "as §1, §2"}, "[4]": {"target": "T1, integrin αvβ6 (ITGαvβ6) as expressed on human carcinoma cell lines and tumor tissue sections (human, UniProt P06756 31-1048; P18564 22-788)", "T1 construct": "whole, on cells; also called ITGAVB6; ITGαvβ6-expressing HNO97 cells", "T1 sequence (P06756 31-1048, chain 1 of 2)": "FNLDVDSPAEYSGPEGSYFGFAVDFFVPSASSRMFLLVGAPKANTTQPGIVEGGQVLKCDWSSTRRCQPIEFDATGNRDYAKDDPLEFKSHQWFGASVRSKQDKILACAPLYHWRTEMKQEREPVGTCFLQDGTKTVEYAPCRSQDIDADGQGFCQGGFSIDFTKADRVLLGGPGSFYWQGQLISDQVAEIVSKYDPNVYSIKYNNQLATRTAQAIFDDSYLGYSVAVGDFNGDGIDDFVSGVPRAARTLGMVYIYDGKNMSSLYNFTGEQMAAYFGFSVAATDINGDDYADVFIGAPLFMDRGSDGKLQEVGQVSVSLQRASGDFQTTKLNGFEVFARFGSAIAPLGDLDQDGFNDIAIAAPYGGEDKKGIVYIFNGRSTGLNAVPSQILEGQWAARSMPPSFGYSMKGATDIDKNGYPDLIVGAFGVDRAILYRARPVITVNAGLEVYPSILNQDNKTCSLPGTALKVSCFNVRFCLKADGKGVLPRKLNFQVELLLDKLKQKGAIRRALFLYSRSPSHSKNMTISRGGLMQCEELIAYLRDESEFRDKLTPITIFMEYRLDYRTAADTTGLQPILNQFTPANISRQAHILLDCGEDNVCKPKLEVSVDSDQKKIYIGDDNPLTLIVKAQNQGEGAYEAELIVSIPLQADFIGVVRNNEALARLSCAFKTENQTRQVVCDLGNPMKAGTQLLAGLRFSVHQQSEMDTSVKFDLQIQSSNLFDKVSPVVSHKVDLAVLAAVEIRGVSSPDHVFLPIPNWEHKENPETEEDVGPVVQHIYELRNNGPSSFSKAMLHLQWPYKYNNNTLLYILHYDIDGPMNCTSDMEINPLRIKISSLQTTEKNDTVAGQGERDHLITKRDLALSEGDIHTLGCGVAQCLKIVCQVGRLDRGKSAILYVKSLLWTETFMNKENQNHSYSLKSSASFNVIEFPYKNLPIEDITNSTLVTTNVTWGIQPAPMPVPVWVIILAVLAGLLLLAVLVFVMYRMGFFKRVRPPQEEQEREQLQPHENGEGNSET", "T1 sequence (P18564 22-788, chain 2 of 2)": "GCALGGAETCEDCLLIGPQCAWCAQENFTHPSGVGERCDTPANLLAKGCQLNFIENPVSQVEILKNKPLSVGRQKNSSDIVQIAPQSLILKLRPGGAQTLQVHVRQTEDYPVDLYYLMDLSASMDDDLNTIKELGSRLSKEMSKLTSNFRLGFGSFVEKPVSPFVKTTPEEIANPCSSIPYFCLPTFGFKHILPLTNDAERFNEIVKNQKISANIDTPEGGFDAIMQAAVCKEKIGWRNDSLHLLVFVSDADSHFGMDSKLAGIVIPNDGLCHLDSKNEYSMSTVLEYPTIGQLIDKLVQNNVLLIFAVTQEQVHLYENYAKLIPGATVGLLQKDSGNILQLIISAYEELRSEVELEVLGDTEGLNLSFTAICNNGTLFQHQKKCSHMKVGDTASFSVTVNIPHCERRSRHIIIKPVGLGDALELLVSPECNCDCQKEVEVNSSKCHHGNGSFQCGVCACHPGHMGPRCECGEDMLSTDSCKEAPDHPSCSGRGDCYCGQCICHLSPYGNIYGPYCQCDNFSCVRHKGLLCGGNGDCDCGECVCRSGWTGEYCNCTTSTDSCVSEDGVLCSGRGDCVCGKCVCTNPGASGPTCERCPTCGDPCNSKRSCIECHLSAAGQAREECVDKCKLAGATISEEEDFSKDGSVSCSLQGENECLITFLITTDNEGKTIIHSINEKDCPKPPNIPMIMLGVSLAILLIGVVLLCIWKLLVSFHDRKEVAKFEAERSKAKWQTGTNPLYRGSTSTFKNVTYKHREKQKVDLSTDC", "assay": "unlabelled peptide competing with the 125I-labelled peptide on Capan-2 cells, 60 min"}}, "note": "Where a SMILES comes first, the peptide text is derived from it. Bridges are numbered along the chain shown (N, C = ends). Roman numbers before positions name the chains, in order. Where no end group is shown, it is not given here. The star is where a group is joined. DOTA = O=C(O)CN1CCN(CC(=O)O)CCN(CC(=O)*)CCN(CC(=O)O)CC1"}
{"molecule": "C[C@@H](O)[C@@H]1NC(=O)[C@H](CCCCN)NC(=O)[C@@H](Cc2c[nH]c3ccccc23)NC(=O)[C@H](Cc2ccc(O)cc2)NC(=O)[C@@H](NC(=O)[C@@H](Cc2ccccc2)NC(=O)CN2CCN(CC(=O)O)CCN(CC(=O)O)CCN(CC(=O)O)CC2)CSSC[C@@H](C(=O)N[C@H](CO)[C@@H](C)O)NC1=O", "note": "[DOTATOC, DOTA(0)-Phe(1)-Tyr(3))octreotid, reference compound]", "values": [{"measurement": "histochemical peptide staining result", "setting": "[1]", "result": "could not observe any specific binding"}]}
{"molecule": "^177Lu-DOTA-SFPF10: ^177Lu-DOTA-labeled SFPF-10 ({DOTA}-GRCTFRGDKMQLCYPD; disulfide 3-13 (inferred); also: DOTA loaded with 177Lu)", "values": [{"measurement": "binding of ^177Lu-DOTA-labeled peptide (kinetics)", "setting": "HNO97 cells [2]", "result": "up to 23%"}]}
{"molecule": "H2N-G-R-C1-T-G-R-G-D-L-G-R-L-K-C2-Y-P-D-COOH (H-GRCTGRGDLGRLKCYPD-OH; disulfide 3-14; SMILES CC(C)C[C@@H]1NC(=O)[C@H](CC(=O)O)NC(=O)CNC(=O)[C@H](CCCNC(=N)N)NC(=O)CNC(=O)[C@H]([C@@H](C)O)NC(=O)[C@@H](NC(=O)[C@H](CCCNC(=N)N)NC(=O)CN)CSSC[C@@H](C(=O)N[C@@H](Cc2ccc(O)cc2)C(=O)N2CCC[C@H]2C(=O)N[C@@H](CC(=O)O)C(=O)O)NC(=O)[C@H](CCCCN)NC(=O)[C@H](CC(C)C)NC(=O)[C@H](CCCNC(=N)N)NC(=O)CNC1=O) [SFLAP3K]", "values": [{"measurement": "cellular uptake of ^125I-labeled variant compared with SFLAP3", "setting": "Capan-2 cells; different pancreatic carcinoma cell lines (FIG. 25D)", "result": "increased cellular uptake"}]}
{"molecule": "biotinylated PEG(12)-SFITGv6: biotinylated PEG(12)-SFITGv6 peptide for histochemical staining (GRCTFRGDLMQLCYPD; disulfide 3-13; also: biotinylated PEG(12) label, site not given here)", "values": [{"measurement": "histochemical peptide staining result", "setting": "[1]; listed as biotin-labeled SFITGv6", "result": "strong and homogenous tumor cell-specific binding"}, {"measurement": "histochemical peptide staining result", "setting": "[1]; listed as biotinylated SFITGv6", "result": "specific, strong and homogeneous binding"}]}
{"molecule": "CC(C)C[C@H](NC(=O)[C@H](CC(=O)O)NC(=O)CNC(=O)[C@H](CCCNC(=N)N)NC(=O)[C@@H]1CCCN1C(=O)[C@@H](N)CO)C(=O)N[C@@H](C)C(=O)N[C@H](C(=O)N[C@@H](CC(C)C)C(=O)NCC(=O)N[C@@H](Cc1c[nH]cn1)C(=O)N[C@@H](CCCCN)C(=O)N[C@@H](Cc1ccc(O)cc1)C(N)=O)C(C)C", "note": "[HBP-1, reference compound] (H-SPRGDLAVLGHKY-NH2; N-terminus and C-terminus assumed)", "values": [{"measurement": "IC50", "setting": "HNO97 cells [3]", "result": 45.1, "unit": "nM"}]}
{"molecule": "SFLAP1: SFTI derivate with grafted LAP1 octamer RRGDLAFI (GRCTRRGDLAFICYPD; disulfide 3-13 (inferred); also: 125I on the tyrosine in labelled form)", "values": [{"measurement": "binding capacity of ^125I-labeled peptide across HNSCC cell lines", "setting": "carcinoma cell lines", "result": "4.1-12.1%"}]}
{"molecule": "CSCC[C@@H]1NC(=O)[C@H](CCCCN)NC(=O)[C@H](CC(=O)O)NC(=O)CNC(=O)[C@H](CCCNC(=N)N)NC(=O)[C@H](Cc2ccccc2)NC(=O)[C@H]([C@@H](C)O)NC(=O)[C@@H](NC(=O)[C@H](CCCNC(=N)N)NC(=O)CN)CSSC[C@@H](C(=O)N[C@@H](Cc2ccc(O)cc2)C(=O)N2CCC[C@H]2C(=O)N[C@@H](CC(=O)O)C(=O)O)NC(=O)[C@H](CC(C)C)NC(=O)[C@H](CCC(N)=O)NC1=O", "note": "[SFPF-10] (H-GRCTFRGDKMQLCYPD-OH; disulfide 3-13; N-terminus and C-terminus assumed)", "values": [{"measurement": "IC50", "setting": "HNO97 cells [3]", "result": 18, "unit": "nM"}]}
{"molecule": "^177Lu-DOTA-SFLAP3K: ^177Lu-DOTA-labeled SFLAP3K ({DOTA}-GRCTGRGDLGRLKCYPD; disulfide 3-14; also: DOTA loaded with 177Lu)", "values": [{"measurement": "cellular uptake of ^177Lu-DOTA-labeled peptide compared with ^177Lu-DOTA-SFLAP3", "setting": "Capan-2 cells; 10 and 60 min", "result": "did not result in an increased cellular uptake"}, {"measurement": "efflux (released into the culture medium)", "setting": "Capan-2 cells; during 4 hours following 60 min exposure", "result": 50, "unit": "%"}]}
{"molecule": "B1", "values": [{"measurement": "IC50", "setting": "[4]", "result": 2.1, "unit": "nM"}]}
{"molecule": "B2", "values": [{"measurement": "IC50", "setting": "[4]", "result": 6.2, "unit": "nM"}]}
{"molecule": "B3", "values": [{"measurement": "IC50", "setting": "[4]", "result": 0.76, "unit": "nM"}]}
